Experimental data: publication PMC3673949, “Small Molecule R1498 as a Well-Tolerated and Orally Active Kinase Inhibitor for Hepatocellular Carcinoma and Gastric Cancer Treatment via Targeting Angiogenesis and Mitosis Pathways” (PLoS ONE, 2013)
Values joined by “and” are separate entries in the source; they are usually repeats but may differ in a detail not shown here. Equal values may be shown once. Read-outs that look alike come from different tables or passages of the source.

What was measured:
[1] = system: human primary gastric tumor derived xenografts; experiment: Three human GC primary tumor derived xenograft models (overall); format: in vivo, BALB/C nu/nu nude mice; details: three patient derived gastric xenografts, 25 mg/kg
Procedure: (§1) In human primary tumor models, fresh human gastric tumor tissues were directly implanted into nonobese diabetic and severe combined immune-deficient (NOD-SCID) mice within 5 hours post-surgery with 5 mm^3 fragments to establish primary tumor xenograft models. […] Treatment began when tumor volume reached 100∼150 mm^3. The tumor measurement and operation protocol was the same as cell line derived tumor model.

HUVEC (FBS stimulated) = experiment: HUVEC proliferation in 10% FBS; format: cell-based; details: Homo sapiens, 72 h
Procedure: Each cell line was seeded in a 96-well tissue culture plate (Corning, NY) at a predetermined density in 180 µL complete medium, attached overnight and treated by compound for another 72 h. Then the medium was discarded and replaced with 10% CCK-8 (Dojindo, Kumamoto, Japan) in complete medium, then incubated the plates for another 2 h. The OD450 was measured with SpectraMAX 190 spectrophotometer (MDS, Sunnyvale, CA). A background absorbance of ODblank was subtracted from all wells.
In VEGF-induced HUVEC proliferation assay, the HUVECs suspended in 170 µL EGM-2 with 0.5% FBS were seeded and incubated overnight. After the cells attached, 10 µL 1 µg/ml recombinant human VEGF 165 (R&D systems, Minneapolis, MN) was added to each well together with 20 µl compound solutions prepared in EGM-2 with 0.5% FBS. The CCK-8 assay as above was used for determination of cell viability.

[2] = Single dose pharmacokinetic (SDPK) study; format: in vivo; details: for Oral BA: micronized API suspension; for clearance / Vd / half-life: plasma; for clearance / Vd: iv, 5 mg/kg, single dose; for Vd: read-out: Vdss; for half-life: iv 5 mg/kg
Procedure: Blood samples were collected by retro-orbital puncture at pre-dose and 0.033, 0.083, 0.25,0.5, 1, 2, 4, 6, 8, and 24 hours post-dose. The plasma samples and the dose formulation were stored at −20°C until bioanalysis. The data acquisition and control system were created using Analyst 1.4 software from ABI Inc. The concentrations in plasma below the limit of quantitation (LOQ = 1 ng/mL) were designated as zero. […] For rat, dog and monkey SDPK, the blood samples were collected from jugular vein puncture.

GC16 xenograft = experiment: Patient primary gastric tumor derived xenograft; format: in vivo, BALB/C nu/nu nude mice; details: GC16, 25 mpk bid, p.o.
Procedure: as §1

GC46 xenograft = experiment: Patient primary gastric tumor derived xenograft; format: in vivo, BALB/C nu/nu nude mice; details: GC46, 25 mpk bid, p.o.
Procedure: as §1

GC318 xenograft = experiment: Patient primary gastric tumor derived xenograft; format: in vivo, BALB/C nu/nu nude mice; details: GC318, 25 mpk bid, p.o.
Procedure: as §1

SGC-7901 xenograft = experiment: Xenograft efficacy study; format: in vivo, BALB/C nu/nu nude mice
Procedure: (§2) Tumor cells were inoculated into the right flank of BALB/C nu/nu female nude mice (5∼6 weeks, 16∼18 g, obtained from Sino-British SIPPR/BK Lab. Animal Ltd, Shanghai, China) at optimal density based on our in-house validation study. After the tumor was established and reached 100∼150 mm^3, the mice were randomized into ten mice per group and received treatment according to the schedule. The tumor growth was recorded three times a week with the measurement of length (L) and width (W) by caliper, and calculated as tumor volume (TV, mm^3) = 0.5*L*W*W (mm). […] The tumor regression of individual mouse was defined - the tumor volume at the end was less than the tumor volume when treatment was initiated.

CD31 = experiment: Immunohistochemistry of BEL-7402 tumors, angiogenesis marker; format: in vivo, BALB/C nu/nu nude mice; details: BEL-7402 tumors from efficacy study
Procedure: The 8 µm paraffin embedded tumor tissue slides prepared from tumor of in vivo efficacy studies were heated in a dry oven at 60°C for 1 hour, then deparaffinized and hydrolyzed by Leica autostainer XL ST5010 at room temperature. Antigen retrieval was carried out at 95∼99°C in citrate buffer (0.01 M, pH 6.0) heated by a medical microwave at 92–98°C for 5 min, then cooled down to room temperature. Then peroxidase-blocking reagent (DAKO, DK-2600, Glostrup Denmark) was applied to quench the endogenous peroxidase. The slides were incubated in blocking serum for 20 min, then covered by 100 µL phospho-Aurora A (Thr288) (C39D8) rabbit mAb (CST #3079, 1∶200 in TBS/T) or rabbit anti-human CD31 polyclonal antibody (Santa Cruz Biotech, sc-8306, Santa Cruz, CA, USA; 1∶200 in TBS/T) at 4°C overnight, then incubated in 100 µL DAKO Envision+/HRP, rabbit/mouse after being washed thoroughly with TBS. One hundred micro liters of substrate-chromogenic solution (DAB) were applied to the slides and incubated at room temperature for 10 min. The slides were rinsed gently with tap water for 15 min. Counterstain and dehydration was performed by XL ST5010 at room temperature. Finally, the slides were mounted with Permount mounting medium (Fisher Scientific, Miami, FL).

[3] = Metabolite profile in pooled liver microsomes; format: in vitro ADME
Procedure: Supplementary file pone.0065264.s005.doc: Table S4 Metabolite profiles in pooled liver microsomes. Pooled liver microsomes were incubated with R1498 and the metabolites were identified to predict the most close species to human. (DOC) Click here for additional data file.

402 kinases = experiment: KINOMEScan kinase affinity profiling; format: binding; details: 1 µM, ATP around Km of each kinase; 359 wild-type kinases and 43 mutants
Procedure: The affinity of R1498 against 402 kinases was determined by KINOMEScan® (Ambit Biosciences, San Diego, CA) and data were presented as dissociation constant (Kd) values. The inhibition on kinase activity of Aurora kinases and VEGFR2 was further characterized by Z’-Lyte kinase activity assays under corresponding ATP concentrations.

BEL-7402 xenograft = experiment: Xenograft efficacy study; format: in vivo, BALB/C nu/nu nude mice
Procedure: as §2

MGC-803 xenograft = experiment: Xenograft efficacy study; format: in vivo, BALB/C nu/nu nude mice; details: MGC-803, 25 mg/kg twice a day per oral gavage
Procedure: as §2

## COc1ccc2c(c1)C(c1ccccc1Cl)=Nc1c(n[nH]c1C)N2 [R1498]
[1]
  Final TGI%: 73.6 ∼ 91.6%
  regression rates: 10–30% and 10∼30%
HUVEC (FBS stimulated)
  IC50: 2.06 µM
[2]; Dog, 50-100 mg/kg
  Oral BA: 32-45 (50-100 mg/kg) %
[2]; Monkey, 12.5 mg/kg
  Oral BA: 4 (12.5 mg/kg) %
[2]; Rat, 25-400 mg/kg
  Oral BA: 9-44 (25-400 mg/kg) %
[2]; Dog
  clearance: 1.9 mL/min/kg
  Vd: 2.7 L/kg
  half-life: 16.8 h
[2]; Monkey
  clearance: 25.3 mL/min/kg
  Vd: 2.1 L/kg
  half-life: 1.5 h
[2]; Rat
  clearance: 5.6 mL/min/kg
  Vd: 1.6 L/kg
  half-life: 3.2 h
GC16 xenograft
  Regression: 3/10
  TGI%: 89.3%
GC46 xenograft
  Regression: 2/10
  TGI%: 73.6%
GC318 xenograft
  Regression: 1/10
  TGI%: 91.6%
SGC-7901 xenograft; SGC-7901, 25 mg/kg twice a day per oral gavage, day of study termination (Table S2)
  Final TGI%: 100%
SGC-7901 xenograft; SGC-7901, 25 mg/kg twice a day per oral gavage, before vs after treatment
  Body weight changes%: 2%
SGC-7901 xenograft; SGC-7901, 25 mg/kg twice a day per oral gavage, mice with regression/group
  Tumor Regression: 5/10
SGC-7901 xenograft; SGC-7901, 6.25 mpk, bid, PO
  Final TGI%: 69%
SGC-7901 xenograft; SGC-7901, 12.5 mpk, bid, PO
  Final TGI%: 83%
CD31
  CD31 staining in tumors: decreased in a dose-dependent manner
[3]; Dog pooled liver microsomes
  Parent (M0): 99.0
  Total M%: 1.0%
[3]; Human pooled liver microsomes
  Parent (M0): 91.9
  Total M%: 8.1%
[3]; Monkey pooled liver microsomes
  Parent (M0): 43.3
  Total M%: 56.7%
[3]; Mouse pooled liver microsomes
  Parent (M0): 94.8
  Total M%: 5.2%
[3]; Rat pooled liver microsomes
  Parent (M0): 90.8
  Total M%: 9.2%
402 kinases
  number of kinases with inhibition rate over 80% out of 402 kinases: 39
BEL-7402 xenograft; BEL-7402, 25 mg/kg twice a day per oral gavage, day of study termination
  Final TGI%: 102%
BEL-7402 xenograft; BEL-7402, 25 mg/kg twice a day per oral gavage, before vs after treatment
  Body weight changes%: 2%
BEL-7402 xenograft; BEL-7402, 25 mg/kg twice a day per oral gavage, mice with regression/group
  Tumor Regression: 8/10
BEL-7402 xenograft; BEL-7402, 3.125 mpk, bid, PO
  Final TGI%: 56%
BEL-7402 xenograft; BEL-7402, 6.25 mpk, bid, PO
  Final TGI%: 69%
BEL-7402 xenograft; BEL-7402, 12.5 mpk, bid, PO
  Final TGI%: 90%
MGC-803 xenograft; day of study termination
  Final TGI%: 99%
MGC-803 xenograft; before vs after treatment
  Body weight changes%: 14%
MGC-803 xenograft; mice with regression/group
  Tumor Regression: 5/10
